Source: PubChem BioAssay (NCI)
Where “and” joins values, the source holds several entries; their conditions need not be identical. Equal values may be shown once.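 48-hour exposure; five concentrations; linearly interpolated endpoints. Abbreviation: GI50, concentration required for 50% inhibition of growth. At the TGI there is no net growth.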

Legend:
Test in all cases: NCI tumour cell line growth inhibition, 48 h
[1] = tested on: SW-620 colon
[2] = tested on: HOP-92 NSCLC
[3] = tested on: EKVX NSCLC
[4] = tested on: HS 578T breast
[5] = tested on: SR leukemia
[6] = tested on: SF-268 CNS
[7] = tested on: U251 CNS
[8] = tested on: M14 melanoma

[O]=[Sn]([CH]1CCCCC1)[CH]1CCCCC1
GI50 [1]: 93.4 nM
TGI [1]: 238 nM
GI50 [2]: 251 nM
TGI [2]: 1200 nM
GI50 [3]: 225 nM
TGI [3]: 1200 nM
GI50 [4]: 266 nM
TGI [4]: 1520 nM
GI50 [5]: 312 nM
TGI [5]: 1710 nM
GI50 [6]: 214 nM
TGI [6]: 654 nM
GI50 [7]: 51.4 nM
TGI [7]: 200 nM
GI50 [8]: 239 nM
TGI [8]: 677 nM

COc1ccc2nc3ccccc3c(NCCNCCO)c2c1
GI50 [1]: 362 nM
TGI [1]: 3660 nM
GI50 [2]: 908 nM
TGI [2]: 4220 nM
GI50 [3]: 1430 nM
TGI [3]: 7320 nM
GI50 [4]: 688 nM
TGI [4]: 3850 nM
GI50 [5]: 214 nM
TGI [5]: 1330 nM
GI50 [6]: 460 nM
TGI [6]: 2950 nM
GI50 [7]: 479 nM
TGI [7]: 4350 nM
GI50 [8]: 709 nM
TGI [8]: 2240 nM

C=C1C(=O)OC2CC(C)C(/C=C/C(C)=O)=CCC12 (stereo not given)
TGI [1]: > 100000 nM
TGI [2]: > 100000 nM
TGI [3]: > 100000 nM
TGI [4]: > 100000 nM
TGI [5]: > 100000 nM
TGI [6]: > 100000 nM
TGI [7]: > 100000 nM
TGI [8]: > 100000 nM

NNc1c(C(N)=O)c2c(N)ncnc2n1C1OC(CO)C(O)C1O (stereo not given)
GI50 [1]: < 12.4 nM
TGI [1]: 992 nM and 241 nM
GI50 [2]: 28.5 nM and 50.7 nM
TGI [2]: 347 nM and 333 nM
GI50 [3]: 208 nM
TGI [3]: 841 nM and 4360 nM
GI50 [4]: 56 nM and 107 nM
TGI [4]: 826 nM and 2380 nM
GI50 [5]: 25.2 nM
TGI [5]: 19.4 nM and 63.9 nM
GI50 [6]: 45.1 nM and 92.8 nM
TGI [6]: 1050 nM and 1220 nM
GI50 [7]: 23 nM and 63.5 nM
TGI [7]: 12900 nM and > 100000 nM
GI50 [8]: < 12.7 nM and 18.8 nM
TGI [8]: 49.8 nM and 162 nM

Cc1cc(NC(=O)NCc2ccc(N3C(N)=NC(N)=NC3(C)C)cc2)ccc1S(=O)(=O)F
GI50 [1]: 491 nM
TGI [1]: > 100000 nM
GI50 [2]: 23200 nM
TGI [2]: > 100000 nM
GI50 [3]: 13800 nM
TGI [3]: > 100000 nM
GI50 [4]: > 48700 nM
TGI [4]: > 100000 nM
GI50 [5]: 502 nM
TGI [5]: > 43500 nM
GI50 [6]: 682 nM
TGI [6]: > 88000 nM
GI50 [7]: 832 nM
TGI [7]: > 100000 nM
GI50 [8]: 1510 nM
TGI [8]: > 100000 nM

CCc1ccc2c(c1)C(=O)c1c-2n(CCCN)c(=O)c2cc(OC)c(OC)cc12
GI50 [1]: 1720 nM
TGI [1]: 3330 nM
GI50 [2]: 1330 nM
TGI [2]: 2710 nM
GI50 [3]: 1920 nM
TGI [3]: 3440 nM
GI50 [4]: 2070 nM
TGI [4]: 3780 nM
GI50 [7]: 1690 nM
TGI [7]: 3110 nM
GI50 [8]: 1800 nM
TGI [8]: 3370 nM

COc1ccc(-c2nsc3c2NC(=O)CC3c2ccsc2)cc1 (stereo not given)
GI50 [1]: 68.4 nM
TGI [1]: > 100000 nM
GI50 [2]: 334 nM
TGI [2]: 81500 nM
GI50 [4]: 269 nM
TGI [4]: > 100000 nM
GI50 [5]: 38.4 nM
TGI [5]: > 100000 nM
GI50 [6]: 1340 nM
TGI [6]: > 100000 nM
GI50 [7]: 299 nM
TGI [7]: > 100000 nM
GI50 [8]: 167 nM
TGI [8]: 23600 nM

CC(C)(O)C1COC2=C1C(=O)c1ccccc1C2=O (stereo not given)
TGI [1]: 50400 nM
TGI [2]: > 100000 nM
TGI [3]: > 100000 nM
TGI [4]: > 100000 nM
TGI [6]: 77100 nM
TGI [7]: > 100000 nM
TGI [8]: > 100000 nM

Nc1ncn([C@H]2CC(O)[C@@H](CO)S2)c(=O)n1 (stereo not given in full)
GI50 [1]: 1480 nM
TGI [1]: > 100000 nM
GI50 [2]: > 100000 nM
TGI [2]: > 100000 nM
GI50 [3]: 32800 nM
TGI [3]: > 100000 nM
GI50 [4]: 39300 nM
TGI [4]: > 100000 nM
GI50 [6]: 16400 nM
TGI [6]: > 100000 nM
GI50 [7]: 12700 nM
TGI [7]: > 100000 nM
GI50 [8]: 2620 nM
TGI [8]: > 100000 nM

COc1cc(-c2nc(-c3ccccc3)c(-c3ccccc3)[nH]2)cc(OC)c1O
GI50 [1]: 16600 nM
TGI [1]: 33100 nM
GI50 [2]: 17600 nM
TGI [2]: 35400 nM
GI50 [4]: 19400 nM
TGI [4]: 52900 nM
GI50 [5]: 13600 nM
TGI [5]: 51700 nM
GI50 [6]: 20100 nM
TGI [6]: 44100 nM
GI50 [7]: 16300 nM
TGI [7]: 33200 nM

CCN(CC)CCOC(COc1cc(C)cc(C)c1)COc1cc(C)cc(C)c1
GI50 [1]: 1590 nM
TGI [1]: 4630 nM
GI50 [3]: 2910 nM
TGI [3]: 11800 nM
GI50 [4]: 4220 nM
TGI [4]: 16700 nM
GI50 [6]: 4260 nM
TGI [6]: 17600 nM
GI50 [7]: 3120 nM
TGI [7]: 11500 nM
GI50 [8]: 1350 nM
TGI [8]: 3060 nM

COc1cc2c(c(OC)c1OC)-c1cc(I)c(O)cc1[C@@H](NC(C)=O)CC2
GI50 [1]: 39 nM
TGI [1]: > 100000 nM
GI50 [2]: 63.9 nM
TGI [2]: 10900 nM
GI50 [3]: 419 nM
TGI [3]: > 100000 nM
GI50 [4]: 29 nM
GI50 [6]: 66.6 nM
TGI [6]: 41100 nM
GI50 [7]: 48.3 nM
TGI [7]: > 100000 nM
GI50 [8]: 31.1 nM
TGI [8]: 96.9 nM

CCn1cc(C(=O)O)c(=O)c2cc(F)c(N3CCN(S(=O)(=O)c4ccc(Cl)cc4Cl)CC3)cc21
GI50 [1]: 3910 nM
TGI [1]: > 100000 nM
GI50 [2]: 1220 nM
TGI [2]: 5220 nM
GI50 [4]: 2530 nM
TGI [4]: 7660 nM
GI50 [6]: 3860 nM
TGI [6]: > 100000 nM
GI50 [7]: 3300 nM
TGI [7]: 14700 nM
GI50 [8]: 3240 nM
TGI [8]: 10800 nM

CC[C@H](C)[C@H](NC(=O)[C@H]1CCCCN1C)C(=O)N(C)[C@H](CCc1nc(C(=O)N[C@@H](Cc2ccccc2)C[C@H](C)C(=O)O)cs1)C(C)C
GI50 [1]: 124 nM
TGI [1]: > 25000 nM
GI50 [2]: 643 nM
TGI [2]: > 25000 nM
GI50 [3]: 920 nM
TGI [3]: > 25000 nM
GI50 [4]: 123 nM
TGI [4]: > 25000 nM
GI50 [5]: 16.6 nM
TGI [5]: > 25000 nM
GI50 [6]: 184 nM
TGI [6]: > 25000 nM
GI50 [7]: 127 nM
TGI [7]: > 25000 nM

COc1cc(C(=O)c2cnc(-c3c[nH]c4cccc(C)c34)[nH]2)cc(OC)c1OC
GI50 [1]: 4.16 nM
TGI [1]: > 100000 nM
TGI [2]: 18300 nM
GI50 [3]: 8.04 nM
GI50 [4]: 6.55 nM
TGI [4]: > 100000 nM
TGI [5]: > 100000 nM
GI50 [6]: 8.62 nM
TGI [6]: > 100000 nM
GI50 [7]: 6.39 nM
TGI [7]: 49100 nM

Clc1ccc(C=Nc2ccc(-c3nc4ccccc4[nH]3)cc2)cc1
GI50 [1]: > 100000 nM
TGI [1]: > 100000 nM
GI50 [2]: 89100 nM
TGI [2]: > 100000 nM
GI50 [3]: > 100000 nM
TGI [3]: > 100000 nM
GI50 [4]: 39000 nM
TGI [4]: > 100000 nM
GI50 [6]: 58400 nM
TGI [6]: > 100000 nM
GI50 [7]: 65100 nM
TGI [7]: > 100000 nM
GI50 [8]: > 100000 nM
TGI [8]: > 100000 nM

O=S(=O)(c1ccccc1)N1CCCC(c2ccccc2)CC1 (stereo not given)
TGI [1]: > 100000 nM
TGI [2]: > 100000 nM
TGI [5]: > 100000 nM
TGI [6]: > 100000 nM
TGI [7]: > 100000 nM
TGI [8]: > 100000 nM

CCOc1ccc2nc(NC(=O)C(=O)C3C(=O)C(CC4C(=O)c5ccccc5C4=O)C(=O)CC3(C)C)sc2c1 (stereo not given)
TGI [1]: > 100000 nM
TGI [2]: > 100000 nM
TGI [3]: > 100000 nM
TGI [4]: > 100000 nM
TGI [6]: > 100000 nM
TGI [7]: > 100000 nM
TGI [8]: > 100000 nM
